Measurements published in US20250381110A1, “SKIN CARE COMPOSITION AND METHOD OF USING THE SAME” (THE PROCTER & GAMBLE COMPANY, priority 2024, published 2025).

What was measured:
[1] = test system: IL-6; assay: SASP assessment, IL-6 mRNA by qPCR; type: cell-based, human
Procedure: Quantibody Human Cytokine Arrays for 20 cytokines (RayBiotech; QAH-CYT-1) were performed using conditioned media collected from primary dermal fibroblasts culture. mRNA levels of human IL-6 and IL-8 were measured by quantitative polymerase chain reaction (qPCR. Total RNA was extracted using RNeasy Mini Kit (QIAGEN, 74104). From 500 ng of total RNA, first-strand complementary DNA (cDNA) was produced using SuperScript III reverse transcriptase (Invitrogen, 18080044). Quantitative PCR was performed in a StepOnePlus Real-Time PCR system (Applied Biosystems) using Power SYBR Green PCR Master Mix (Applied Biosystems, 4367659). mRNA levels were determined with the […] and normalised to GAPDH levels.

[2] = test system: human dermal fibroblasts (HDFs); assay: Average nuclear size by immunofluorescence microscopy; type: cell-based
Procedure: (§1) Immunofluorescence analyses were performed as described previously (Carroll et al.). In brief, cells were seeded on coverslips in 24-well plates and fixed in 4% formaldehyde in PBS for 10 min at room temperature followed by permeabilization in 0.5% Triton X-100 (Sigma-Aldrich) in PBS for 4 min at room temperature (Ki67 and p21) or in methanol for 4 min at −20° C. (LC3 and p62). Cells were then blocked for 1 h in 5% normal goat serum (Sigma-Aldrich) in PBS at room temperature and incubated with primary antibodies overnight at 4° C. Cells were washed three times and incubated with the appropriate secondary antibodies for 1 h at room temperature (Thermo Fisher Scientific, A31556 and A21235, 1:1000). Cells were washed, and coverslips were mounted on slides with Prolong Gold antifade mountant with DAPI (Invitrogen). Fluorescence images were obtained as described above. The following primary antibodies were used: rabbit anti-Ki67 (Abcam, ab 15580, 1:250), rabbit anti-p21 (CST, 2947, 1:1000), mouse anti-LC3 (NanoTools, 0260-100, 1:200) and rabbit anti-p62 (MBL, PM045, 1:500).

[3] = test system: Ki67; assay: Immunostaining for Ki67 (percentage of Ki67-positive cells); type: cell-based, human; details: HDFs; 30 μM for 5 h prior to IR; 11 days after IR
Procedure: as §1

[4] = test system: human dermal fibroblasts (HDFs); assay: Mitochondrial mass by Mitotracker Green staining; type: cell-based; details: HDFs from aged donors; 30 μM, 7 h
Procedure: The Seahorse XF Cell Mito Stress Test Kit (Agilent) was used to measure oxygen consumption rates in adult dermal fibroblasts. One day prior to the assay cells were seeded at either 4000 per well or 3000 per well. Where indicated, fibroblast plates were subjected to 20Gy IR 2 h before assay. […] HDFs were stained with 100 nM Mitotracker Green for mitochondrial density measurement. The Mito Stress Test was performed as per manufacturer's guidelines on a Seahorse XF96 Extracellular Flux analyser using previously optimized conditions. Following assay completion, cells were fixed in 4% PFA for 20 minutes. PFA was then removed, and cells were washed twice with PBS. Following fixation, cells were stained with Hoescht nucleic acid stain (Invitrogen) for 10 min before being washed twice in PBS. Fluorescence was subsequently measured using the PHERAstar FSX plate reader (BMG LABTECH) at 350/460 nm for normalization purposes. Following normalization, OCR measurements were interpreted from data generated from the Agilent Seahorse Wave software version 2.6.3.5. Basal respiration data in unstressed conditions is presented. OCR measurements were further normalised to mitochondrial density to obtain ATP production (pmol/min/mitochondria).

[5] = test system: human dermal fibroblasts (HDFs); assay: Seahorse analysis, ATP production normalized to MitoTracker density; type: cell-based; details: HDFs from aged donors; 30 μM, 7 h
Procedure: The Seahorse XF Cell Mito Stress Test Kit (Agilent) was used to measure oxygen consumption rates in adult dermal fibroblasts. One day prior to the assay cells were seeded at either 4000 per well or 3000 per well. Where indicated, fibroblast plates were subjected to 20Gy IR 2 h before assay. STOCKIN ([…]) or vehicle (DMSO) treatments were performed 7 h before Seahorse assays. HDFs were stained with 100 nM Mitotracker Green for mitochondrial density measurement. The Mito Stress Test was performed as per manufacturer's guidelines on a Seahorse XF96 Extracellular Flux analyser using previously optimized conditions. Following assay completion, cells were fixed in 4% PFA for 20 minutes. PFA was then removed, and cells were washed twice with PBS. Following fixation, cells were stained with Hoescht nucleic acid stain (Invitrogen) for 10 min before being washed twice in PBS. Fluorescence was subsequently measured using the PHERAstar FSX plate reader (BMG LABTECH) at 350/460 nm for normalization purposes. Following normalization, OCR measurements were interpreted from data generated from the Agilent Seahorse Wave software version 2.6.3.5. Basal respiration data in unstressed conditions is presented. OCR measurements were further normalised to mitochondrial density to obtain ATP production (pmol/min/mitochondria).

[6] = HDFs from aged donors, 30 μM, 7 h

For CC(=O)Oc1ccc(N2C(=O)C3C(Cc4ccccc4)NC4(C(=O)Nc5c4ccc(Cl)c5C)C3C2=O)cc1 (stereo not shown) [STOCKIN-57543], the “levels of the SASP factor IL-6 (mRNA)” value [1, 6] was “decreasing levels of the SASP factor IL-6”, the “IR-associated increase in IL-6 level (mRNA)” value ([1]; HDFs, 30 μM for 5 h prior to IR, 11 days after IR) was “mitigating IR-associated increases in levels of the SASP factors IL-6 and IL-8” and the nuclear size [2, 6] was “decreasing a senescence-associated increase in nuclear size”. For the same compound, the “IR-associated increase in nuclear size” value ([2]; HDFs, treatment 5 h prior to IR) was “mitigating IR-associated increase in nuclear size”, the “IR-associated decrease in cellular proliferation capacity (Ki67)” value [3] was “mitigating IR-associated decrease in cellular proliferation capacity” and the mitochondrial mass [4] was “restoring mitochondrial mass”. The “mitochondrial function (ATP production per cell normalized to MitoTracker density)” value [5] was “restoring”.
